Source: patent US4370331A, “L-Glaucine containing composition for cough relief” (Karl O. Helm Aktiengesellschaft, priority 1977, dated 1983)
“And” between values parts separate entries of the source, which are not always exact repeats. Equal entries are not always repeated. Structures can show the parent of a compound that is named as a salt. Where two headings read alike, the source gives them in different places.

Legend:
cough pulses [1] = assay: Oral citric acid aerosol cough test in guinea pigs, time course 1-24 h, Comparative test 6; format: in vivo; details: for Cough pulses during 8 minutes, percent of control value, after 1 h / Cough pulses during 8 minutes, percent of control value, after 3 h / Cough pulses during 8 minutes, percent of control value, after 5 h / Cough pulses during 8 minutes, percent of control value, after 24 h: codeine phosphate 75, d,l-glaucine hydrobromide 150, hydrochloride 135, embonate 378 mg/kg
Procedure: In a further comparative test, 40 female guinea pigs with body weights between 230 and 500 g were divided into 4 groups and each animal was again subjected to the action of a 20% citric acid aerosol for 8 minutes. From the control values thus obtained the average control value for each group was calculated. Each animal of each group was then given, by means of a throat probe, either 75 mg/kg of codeine phosphate, or 135 mg/kg of d,l-glaucine hydrochloride, or 150 mg/kg of d,1-glaucine hydrobromide, or 378 mg/kg of d,l-glaucine embonate. These doses are the equimolar quantities, based on glaucine. After a period of 1, or 3, or 5, or 24 hours each animal was again subjected for 8 minutes to the action of the citric acid aerosol, and the number of cough pulses during this period was recorded. The values thus obtained were compared with the control values and the percent deviation of the average measured value for each group, from the average control value, was calculated.

cough pulses [2] = assay: Citric acid aerosol cough test in guinea pigs, subcutaneous, 30 min (method of Friebel and Reichle), Comparative test 1; format: in vivo; details: s.c.; for ED50: Cavia porcellus, sc, 0.5 h, 30 min after administering, 20% citric acid aerosol, 8 min
Procedure: In order to compare the anti-cough effectiveness of codeine phosphate with the effectiveness of the different isomers of glaucine hydrobromide, the testing method of Friebel and Reichle was used. 60 guinea pigs with weights between 200 and 300 g were divided up into ten groups of different sizes. Before administering the active substance, each animal was subjected, on the same day as the day of test with the active substance, for a period of 8 minutes to an aerosol of 20% citric acid, the animal being confined in a chamber at constant air pressure. During this control test the number of cough pulses was counted with the help of a pressure transmitter. From these measurements an average control value for each group was calculated. After this preliminary control test, there was given subcutaneously to each animal of each group a suspension of the active substance in 1% sodium carboxymethyl cellulose. After 30 minutes each animal was again exposed in the test chamber for 8 minutes to the aerosol of 20% citric acid and the number of cough pressure pulses recorded. The different active substances were administered in increasing doses ranging from 3 mg/kg to 100 mg/kg of body weight. Altogether eight different doses were given. The results were expressed as percent deviation from the average control value for the group on the same day, the deviation being entered in a diagram against the logarithm of the dose administered. From the resulting effectiveness curve, based on the logarithm of the dose, the coefficient of correlation and the ED50 were calculated for each active substance, by the regression analysis method of Downie and Heath (1965). The values obtained for codeine phosphate, for d-glaucine hydrobromide, for d,l-glaucine hydrobromide and for l-glaucine hydrobromide thirty minutes after administering the active substance are summarized in Table I.

[3] = test system: isolated guinea pig intestines (contractions induced by electric voltages); assay: Suppression of electrically induced contractions in isolated guinea pig intestines, Comparative test 4; set-up: electrically induced contractions (Table III): unit not given here
Procedure: In a further series of tests the effects of different doses of codeine phosphate in suppressing contractions induced in isolated guinea pig intestines by electric voltages were tested. For this purpose one electrode was immersed in the solution surrounding the intestinal preparation. The second electrode was connected to the preparation at the attachment point.

coughing centre = assay: Coughing reflex by electrical stimulation of upper laryngeal nerves of anaesthetized cats (method of Domenjoz), Comparative test 5; format: in vivo; details: intravenous; for minimal effective dose: Felis catus, read-out: MED (minimal effective dose completely suppressing the coughing reflex); for minimal effective dose / Duration of cough suppression: anaesthetized cats; for Duration of cough suppression: at MED
Procedure: In a series of tests conducted by the method of Domenjoz, the effects of the different active substances on the coughing centre was examined by electrical stimulation of the upper laryngeal nerves of anaesthetized cats. Electrical stimulation of the nerve produces a coughing reflex and the intention is to reduce this by intravenous injection of the active substance. The minimal effective dose MED is determined by increasing the dose from 0.1 mg/kg of body weight up to 0.3 mg/kg, 1.0 mg/kg, 3.0 mg/kg and 6.0 mg/kg, until the dose is sufficient for completely suppressing the coughing reflex.
In these tests each animal was given, on the one hand, codeine and, on the other hand, at sufficient time intervals also glaucine, so that the ratio of the minimal effective doses of glaucine and codeine can be deduced.

cough pulses [4] = assay: Oral citric acid aerosol cough test in guinea pigs, 1 h (equivalent effective doses), Comparative test 6; format: in vivo; details: for Cough pulses percent of control value: 20% citric acid aerosol 8 min
[5] = Toxicity (LD50) in mice by the Wilcox method, Comparative test 7; format: in vivo; details: mouse, in vivo
Procedure: (§1) The toxicity thresholds of codeine phosphate, of d-glaucine hydrobromide and of d,l-glaucine hydrobromide were determined in mice by the Wilcox method. […] The toxicities of codeine phosphate and d,l-glaucine hydrobromide are about equal.

mice = assay: as above; format: in vivo; details: hydrobromide
Procedure: as §1

[6] = test system: isolated guinea pig intestines (contractions induced by electric voltages); assay: Suppression of electrically induced contractions in isolated guinea pig intestines, Comparative test 4; details: isolated guinea pig intestine; codeine: increased doses; d-glaucine: higher concentrations than 4×10^-5; d,l-glaucine: 4×10^-5 to 6×10^-5
[7] = test system: smooth muscles of isolated guinea pigs intestine; assay: Effect on smooth muscles of isolated guinea pig intestine in a bath, Comparative test 3; details: for spontaneous activity and tone, in words: molar concentrations between 1×10^-5 and 8×10^-5
Procedure: Experiments were conducted in vitro to determine the effects of different active substances on the smooth muscles of isolated guinea pigs intestine samples suspended in a bath. After adding to the bath different doses of the active substances, the contractive force of the muscle material was recorded.

intestinal motility = assay: Intestinal motility / evacuation action of stomach-intestinal tract of mice (carbon suspension), Comparative test 2; format: in vivo; details: s.c., 2 h, control 74.3%, * = significantly different from control (p < 0.05)
Source text: One of the most unpleasant side effects of anti-cough medicine containing codeine is constipation and the occurrence of intestinal spasms. A model test for determining the effects of anti-cough active substances on intestinal motility and on the evacuation action of the stomach-intestinaltract of mice was therefore made. After subcutaneous injection of the active substance, each animal was given, through a throat probe, a 10% suspension of carbon in a 5% aqueous slurry of gum arabic. Two hours later the intestine was sectioned and the distance of stomach coecum measured, and also the distance travelled by the carbon, which was expressed as percent of intestine length.
The effects of codeine phosphate, of d-glaucine hydrobromide and of l-glaucine hydrobromide on intestinal motility were determined at different doses. For each dose the average value was calculated for a sufficient number of animals.

[8] = po, peroral, read-out: LD50 peroral
[9] = sc, subcutaneous, read-out: LD50 subcutaneous

Compound: COc1cc2c(cc1OC)-c1c(OC)c(OC)cc3c1C(C2)N(C)CC3 (racemic) [d,l-glaucine embonate]
- Cough pulses during 8 minutes, percent of control value, after 1 h (cough pulses [1]): 80%
- Cough pulses during 8 minutes, percent of control value, after 3 h (cough pulses [1]): 51%
- Cough pulses during 8 minutes, percent of control value, after 5 h (cough pulses [1]): 57%
- Cough pulses during 8 minutes, percent of control value, after 24 h (cough pulses [1]): 81%
- duration of effect, in words (cough pulses [1]; guinea pigs, 378 mg/kg): considerably longer-lasting effect without any delay in the beginning of the effect

Compound: COc1cc2c(cc1OC)-c1c(OC)c(OC)cc3c1C(C2)N(C)CC3 (racemic) [d,l-glaucine hydrobromide]
- ED50 (cough pulses [2]): 27.2 mg/kg
- ED50 value, comparison in words (cough pulses [2]; 30 min): even lower ED50 value than l-glaucine hydrobromide
- suppression of electrically induced spasms, in words ([3]; 4×10^-5 to 6×10^-5): suppress the electrically induced spasms practically completely
- electrically induced contractions (Table III) ([3]; molar concentration 1 × 10^-5): 63
- electrically induced contractions (Table III) ([3]; molar concentration 2 × 10^-5): 48
- electrically induced contractions (Table III) ([3]; molar concentration 4 × 10^-5): 8
- electrically induced contractions (Table III) ([3]; molar concentration 4 × 10^-6): 81
- electrically induced contractions (Table III) ([3]; molar concentration 8 × 10^-6): 63
- minimal effective dose (coughing centre): 1 mg/kg
- Duration of cough suppression (coughing centre): 44 to 62 min
- duration of the effect, in words (coughing centre; at minimal dose): considerably greater for the d,l-glaucine hydrobromide than for the d-glaucine hydrobromide
- Cough pulses percent of control value (cough pulses [4]; 100 mg/kg): 30%
- Cough pulses percent of control value (cough pulses [4]; 200 mg/kg): 44%
- dose having about the same effect (codeine phosphate vs d,l-glaucine hydrobromide) (cough pulses [4]; guinea pigs): ~150 mg per kg of body weight
- Cough pulses during 8 minutes, percent of control value, after 1 h (cough pulses [1]; hydrobromide): 90%
- Cough pulses during 8 minutes, percent of control value, after 3 h (cough pulses [1]; hydrobromide): 47%
- Cough pulses during 8 minutes, percent of control value, after 5 h (cough pulses [1]; hydrobromide): 59%
- Cough pulses during 8 minutes, percent of control value, after 24 h (cough pulses [1]; hydrobromide): 113%
- LD50 [5, 8]: 686 mg/kg
- LD50 [5, 9]: 320 mg/kg
- toxicity, comparison in words (mice): about equal
- induced spontaneous activity, in words [6]: without at the same time inducing any spontaneous activity

Compound: COc1cc2c(cc1OC)-c1c(OC)c(OC)cc3c1C(C2)N(C)CC3 (racemic) [d,l-glaucine hydrochloride]
- Cough pulses during 8 minutes, percent of control value, after 1 h (cough pulses [1]; hydrochloride): 80%
- Cough pulses during 8 minutes, percent of control value, after 3 h (cough pulses [1]; hydrochloride): 72%
- Cough pulses during 8 minutes, percent of control value, after 5 h (cough pulses [1]; hydrochloride): 69%
- Cough pulses during 8 minutes, percent of control value, after 24 h (cough pulses [1]; hydrochloride): 102%

Compound: COc1ccc2c3c1O[C@H]1[C@@H](O)C=C[C@H]4[C@@H](C2)N(C)CC[C@@]341 [codeine, reference compound]
- contractive force of the muscle material, in words ([7]; molar concentrations between 1×10^-5 and 32×10^-5): produces contractions which depend on the dose

Compound: COc1cc2c(cc1OC)-c1c(OC)c(OC)cc3c1[C@H](C2)N(C)CC3 [d-glaucine hydrobromide, reference compound]
- ED50 (cough pulses [2]): 54 mg/kg
- Distance travelled average % (of intestine length) (intestinal motility; 10 mg/kg): 74.6%
- Distance travelled average % (of intestine length) (intestinal motility; 30 mg/kg): 80.1%
- Distance travelled average % (of intestine length) (intestinal motility; 100 mg/kg): 36.4%
- suppression of electrically induced contraction reflexes, in words ([3]; 4×10^-5): suppresses electrically induced contraction reflexes
- electrically induced contractions (Table III) ([3]; molar concentration 1 × 10^-5, hydrobromide): 77 and 95
- electrically induced contractions (Table III) ([3]; molar concentration 2 × 10^-5, hydrobromide): 74 and 79
- electrically induced contractions (Table III) ([3]; molar concentration 4 × 10^-5, hydrobromide): 44 and 36
- minimal effective dose (coughing centre): 1 mg/kg
- Duration of cough suppression (coughing centre): 5 to 39 min
- LD50 [5, 8]: 345 mg/kg
- LD50 [5, 9]: 125 mg/kg
- induced spontaneous activity, in words [6]: the increasing spontaneous activity prevents any distinguishing between direct production and electric production of the activity

Compound: COc1cc2c(cc1OC)-c1c(OC)c(OC)cc3c1[C@H](C2)N(C)CC3 [d-glaucine, reference compound]
- spontaneous activity and tone, in words [7]: dose-dependent increase of spontaneous activity and tone

Compound: COc1cc2c(cc1OC)-c1c(OC)c(OC)cc3c1[C@@H](C2)N(C)CC3 [l-glaucine]
- spasmogenic activity ([7]; in vitro, isolated guinea pig intestine): no spasmogenic activity
- spontaneous activity and tone, in words [7]: a reduction in spontaneous activity and no increase in tone
